Earlier results, collected in publication PMC7670640 (Pharmacology Research & Perspectives, 2020).

Details: prior terminated phase IIb clinical trial; cited from earlier work

Compound: C=C(C)[C@@H]1CC[C@]2(NCCN3CCS(=O)(=O)CC3)CC[C@]3(C)[C@H](CC[C@@H]4[C@@]5(C)CC=C(c6ccc(C(=O)O)cc6)C(C)(C)[C@@H]5CC[C@]43C)[C@@H]12 [GSK3532795]
- GI intolerability: GI intolerability (predominantly abdominal pain and diarrhea)
